Measurements published in patent US20180021450A1, “ANTI-STAPHYLOCOCCUS AUREUS ANTIBODY RIFAMYCIN CONJUGATES AND USES THEREOF” (Genentech, Inc., priority 2014, published 2018).
≈ marks a conversion by molar mass, not a printed value. Like-named read-outs stand apart in the source and are kept apart here. Values belong to the compound of their own block, whether it stands above or below them.

Key:
[1] = system: MRSA (NRS384 strain of USA300); assay: MIC determination for extracellular bacteria in liquid culture; format: cell-based; conditions: Staphylococcus aureus, read-out: Extracellular MRSA MIC
Description: The MIC for extracellular bacteria was determined by preparing serial 2-fold dilutions of the antibiotic in Tryptic Soy Broth. Dilutions of the antibiotic were made in quadruplicate in 96 well culture dishes. MRSA (NRS384 strain of USA300) was taken from an exponentially growing culture and diluted to 1×10^4 CFU/mL. The bacteria was cultured in the presence of antibiotic for 18-24 hours with shaking at 37° C. and bacterial growth was determined by reading the Optical Density (OD) at […]. The MIC was determined to be the dose of antibiotic that inhibited bacterial growth by >90%.
(§1) For extracellular bacteria, MRSA was cultured overnight in Tryptic Soy Broth, and the MIC was determined to be the minimum antibiotic dose that prevented growth. For intracellular bacteria, murine peritoneal macrophages were infected with MRSA and cultured in the presence of gentamycin to kill extracellular bacteria. Test antibiotics were added to the culture medium one day post infection, and the total number of surviving intracellular bacteria was determined 24 hours later. The expected serum concentrations for clinically relevant antibiotics was reported in Antimicrobial Agents, Andre Bryskier. ASM Press, Washington D.C. (2005).

[2] = system: intracellular MRSA sequestered inside murine macrophages; assay: MIC determination for intracellular bacteria inside murine peritoneal macrophages; format: cell-based, Staphylococcus aureus; conditions: for MIC: Staphylococcus aureus, MRSA, read-out: Intracellular MRSA MIC; for killing of MRSA sequestered inside macrophages: macrophages exposed to clinically achievable concentrations
Description: Intracellular MIC was determined on bacteria that were sequestered inside mouse peritoneal macrophages (see below for generation of murine peritoneal macrophages). Macrophages were plated in 24 well culture dishes at a density of 4×10^5 cells/mL and infected with MRSA at a ratio of 10-20 bacteria per macrophage. Macrophage cultures were maintained in growth media supplemented with 50 ug/mL of gentamycin (an antibiotic that is active only on extracellular bacteria) to inhibit the growth of extracellular bacteria and test antibiotics were added to the growth media 1 day after infection. The survival of intracellular bacteria was assessed 24 hours after addition of the antibiotics. Macrophages were lysed with Hanks Buffered Saline Solution supplemented with 0.1% Bovine Serum Albumin and 0.1% Triton-X, and serial dilutions of the lysate were made in Phosphate Buffered Saline solution containing 0.05% Tween-20. The number of surviving intracellular bacteria was determined by plating on Tryptic Soy Agar plates with 5% defibrinated sheep blood.
Peritoneal macrophages were isolated from the peritoneum of 6-8 week old Balb/c mice (Charles River Laboratories, Hollister, Calif.). To increase the yield of macrophages, mice were pre-treated by intraperitoneal injection with 1 mL of thioglycolate media (Becton Dickinson). The thioglycolate media was prepared at a concentration of 4% in water, sterilized by autoclaving, and aged for 20 days to 6 months prior to use. Peritoneal macrophages were harvested 4 days post treatment with thioglycolate by washing the peritoneal cavity with cold phosphate buffered saline. Macrophages were plated in Dulbecco's Modified Eagle Medium (DMEM) supplemented with 10% Fetal Calf Serum, and 10 mM HEPES, without antibiotics, at a density of 4×10^5 cells/well in 24 well culture dishes. Macrophages were cultured over night to permit adherence to the plate. This assay was also utilized to test intracellular killing in non-phagocytic cell types. MG63 (CRL-1427) and A549 (CCL185) cell lines were obtained from ATCC and maintained in RPMI 1640 tissue culture media supplemented with 10 mM Hepes and 10% Fetal Calf Serum (RPMI-10). HUVEC cells were obtained from Lonza and maintained in EGM Endothelial Cell Complete Media (Lonza, Walkersville, Md.).
as §1

[3] = expected serum concentration, from Antimicrobial Agents, Bryskier (2005); cited from earlier work
[4] = system: S. aureus (USA300) persister cells; assay: Killing of persister cells by free antibiotics; format: cell-based, Staphylococcus aureus; conditions: ciprofloxacin-treated cultures, second antibiotic 1 ug/ml
Description: Killing of persisters cells by free antibiotics: S. aureus (USA300) was taken from an overnight stationary phase culture, washed once in Tryptic Soy Broth (TSB) and then adjusted to a final concentration of 1×10^7 CFU/ml in a total volume of 10 mL of either TSB or TSB with ciprofloxicin (0.05 mM). Cultures were incubated with shaking at 37° C. for 6 hours and then the second antibiotic, either rifampicin (1 ug/ml) or another rifamycin-type antibiotic (1 ug/ml) was added. At the indicated times, samples were removed from each culture, washed once with PBS to remove the antibiotic and re-suspended in PBS. The total number of surviving bacteria was determined by plating serial dilutions of the bacteria on agar plates. At the final time point the remainder of each culture was collected and plated.

MRSA = assay: In vitro transfer of infection to MG63 osteoblasts / HBMEC in the presence of vancomycin; format: cell-based, Staphylococcus aureus
Description: 6-8 week old female A/J mice (Jackson Lab) were infected with 1×10^8 CFU of the NRS384 strain of USA300 by peritoneal injection. The peritoneal wash was harvested 1 day post infection, and the infected peritoneal cells were treated with 50 ug/mL of lysostaphin diluted in Hepes Buffer supplemented with 0.1% BSA (HB buffer) for 30 minutes at 37° C. Peritoneal cells were then washed 2x in ice cold HB buffer. The peritoneal cells were diluted to 1×10^6 cells/mL in RPMI 1640 tissue culture media supplemented with 10 mM Hepes and 10% Fetal Calf Serum, and 5 ug/mL vancomycin. Free MRSA from the primary infection was stored overnight at 4° C. in Phosphate Buffered Saline Solution as a control for extracellular bacteria that were not subject to neutrophil killing.
MG63 cell line was obtained from ATCC (CRL-1427) and maintained in RPMI 1640 tissue culture media supplemented with 10 mM Hepes and 10% Fetal Calf Serum (RPMI-10). HBMEC cells (Catalog #1000) and ECM media (catalog#1001) were obtained from SciencCell Research Labs (Carlsbad, Calif.). Cells were plated in 24 well tissue culture plates and cultured to obtain a confluent layer. On the day of the experiment, the cells were washed once in RPMI (without supplements). MRSA or infected peritoneal cells were diluted in complete RPMI-10 and vancomycin was added at 5 ug/mL immediately prior to infection. Peritoneal cells were added to the osteoblasts at 1×10^6 peritoneal cells/mL. A sample of the cells was lysed with 0.1% triton-x to determine the actual concentration of live intracellular bacteria at the time of infection. The actual titer for all infections was determined by plating serial dilutions of the bacteria on Tryptic Soy Agar with 5% defibrinated sheep blood.
MRSA (free bacteria) was seeded in media, media+vancomycin, or media+vancomycin and plated on a monolayer of MG63 osteoblasts (FIG. 1E) or Human Brain Microvascular Endothelial Cells (HBMEC, FIG. 1F). Plates were centrifuged to promote contact of the bacteria with the monolayer. At each time point, the culture supernatant was collected to recover extracellular bacteria or adherent cells were lysed to release intracellular bacteria.

USA300 = assay: In vivo transfer of infection model in A/J mice (free vs intracellular bacteria); parameters: species or system Staphylococcus aureus; conditions: mice infected i.v. with free or intracellular bacteria, examined 4 days after infection
Description: USA300 stocks were prepared for infection from actively growing cultures in tryptic soy broth. Bacteria were washed 3× in phosphate buffered saline (PBS) and aliquots were frozen at −80° C. in PBS 25% glycerol. Intracellular Bacteria Infections: A/J mice were chosen for these experiments because they are easily infected with relatively low doses of MRSA (2×10^6 CFU/mouse). 7 week old female A/J mice were obtained from Jackson Lab and infected by peritoneal injection with 5×10^7 CFU of USA300. Mice were sacrificed 1 day post infection and the peritoneum was flushed with 5 mL of cold PBS. Peritoneal washes were centrifuged for 5 minutes at 1,000 rpm at 4° C. in a table top centrifuge. The cell pellet containing peritoneal cells was collected and cells were treated with 50 ug/mL of lysostaphin (Cell Sciences Inc. Canton Mass., CRL 309C) for 20 minutes at 37° C. to kill contaminating extracellular bacteria. Peritoneal cells were washed 3x in ice cold PBS to remove the lysostaphin. […]
These experiments compared the virulence of intracellular bacteria versus an equivalent dose of free-living planktonic bacteria, and determined whether the intracellular bacteria are able to establish infection in the presence of vancomycin in vivo. […]

[5] = extracellular bacteria grown in liquid culture (Tryptic Soy Broth)
[6] = bacteria sequestered inside murine macrophages, antibiotics added one day post infection, survivors counted 24 hours later

Compound: CCCCCCCCCC(=O)N[C@@H](Cc1c[nH]c2ccccc12)C(=O)N[C@H](CC(N)=O)C(=O)N[C@@H](CC(=O)O)C(=O)N[C@@H]1C(=O)NCC(=O)N[C@@H](CCCN)C(=O)N[C@@H](CC(=O)O)C(=O)N[C@H](C)C(=O)N[C@@H](CC(=O)O)C(=O)NCC(=O)N[C@H](CO)C(=O)N[C@@H]([C@H](C)CC(=O)O)C(=O)N[C@@H](CC(=O)c2ccccc2N)C(=O)O[C@@H]1C [Daptomycin]
MIC [1]: 4 µg/mL (≈ 2.47 µM)
MIC ([2]; 24 h): > 100 µg/mL
killing of MRSA sequestered inside macrophages [2]: failed to kill
Serum Cmax [3]: 60 µg/mL

MIC [1, 5]: 0.3 µg/mL (≈ 0.889 µM)
Compound: CC(=O)NC[C@H]1CN(c2ccc(N3CCOCC3)c(F)c2)C(=O)O1 [Linezolid]
MIC [2, 6]: > 20 µg/mL
killing of MRSA sequestered inside macrophages [2]: failed to kill
Serum Cmax [3]: 20 µg/mL

Compound: CO[C@H]1/C=C/O[C@@]2(C)Oc3c(C)c(O)c4c(O)c(c(/C=N/N5CCN(C)CC5)c(O)c4c3C2=O)NC(=O)/C(C)=C\C=C\[C@H](C)[C@H](O)[C@@H](C)[C@@H](O)[C@@H](C)[C@H](OC(C)=O)[C@@H]1C [Rifampicin]
MIC [1, 5]: 0.004 µg/mL (≈ 0.00486 µM)
MIC [2, 6]: 50 µg/mL (≈ 60.8 µM)
higher dose to eliminate intracellular MRSA compared to the dose required to inhibit growth (MIC) of planktonic bacteria ([2]; intracellular vs planktonic MRSA USA300): 6,000 fold
effect on viability of persister cells [4]: no effect

Compound: CN[C@H](CC(C)C)C(=O)N[C@H]1C(=O)N[C@@H](CC(N)=O)C(=O)N[C@H]2C(=O)N[C@H]3C(=O)N[C@H](C(=O)N[C@H](C(=O)O)c4cc(O)cc(O)c4-c4cc3ccc4O)[C@H](O)c3ccc(c(Cl)c3)Oc3cc2cc(c3O[C@@H]2O[C@H](CO)[C@@H](O)[C@H](O)[C@H]2O[C@H]2C[C@](C)(N)[C@H](O)[C@H](C)O2)Oc2ccc(cc2Cl)[C@H]1O [Vancomycin]
MIC [1]: 1 µg/mL (≈ 0.69 µM)
MIC ([2]; 24 h): > 100 µg/mL
killing of MRSA sequestered inside macrophages [2]: failed to kill
increase of intracellular S. aureus over a 24 hour period (MRSA; MG63 cells, primary human brain endothelial cells, A549 cells, constant exposure to vancomycin): ~10 fold
survival of intracellular MRSA in the leukocytes (MRSA; MRSA sequestered inside peritoneal cells, vancomycin 5 ug/mL): About 15%
surviving bacteria associated with the MG63 cells one day after infection (MRSA; planktonic bacteria plated on MG63 osteoblasts, vancomycin 5 ug/mL): approximately 0.06 % of input
killing of planktonic bacteria exposed to vancomycin alone (MRSA; vancomycin 5 ug/mL, one day in culture): efficiently killed
establishment of infection (kidney, brain) under vancomycin therapy (USA300): intracellular bacteria, but not planktonic bacteria, were able to establish infection
Serum Cmax [3]: 50 µg/mL
